Laboratory results: ChEMBL document CHEMBL1201862, “PubChem BioAssay data set” (2004)
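Method: 48-hour compound exposure of cells in 96-well plates, five concentrations, linear interpolation of endpoints. At the GI50, growth is halved.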 Calls of active or inactive are those of the source. Cut-off read from the data, not from the text of the source: active = GI50 up to about 1.1 µM and inactive = higher.

Legend:
Assay in all cases: growth of human tumour cells (NCI), 48 h
786-0 = test system: 786-0
A498 = test system: A498
A549 = test system: A549
CAKI-1 = test system: CAKI-1
DU-145 = test system: DU-145
EKVX = test system: EKVX
HCT-15 = test system: HCT-15
HOP-62 = test system: HOP-62
IGROV-1 = test system: IGROV-1
Malme-3M = test system: Malme-3M
NCI-H23 = test system: NCI-H23
NCI-H522 = test system: NCI-H522
RPMI-8226 = test system: RPMI-8226
SK-MEL-2 = test system: SK-MEL-2
SK-MEL-5 = test system: SK-MEL-5
SNB-19 = test system: SNB-19
SNB-75 = test system: SNB-75
UO-31 = test system: UO-31
NCI-H226 = test system: NCI-H226
OVCAR-3 = test system: OVCAR-3

Row | Structure (SMILES) | GI50 (786-0) | GI50 (A498) | GI50 (A549) | GI50 (CAKI-1) | GI50 (DU-145) | GI50 (EKVX) | GI50 (HCT-15) [µM] | GI50 (HOP-62) | GI50 (IGROV-1) | GI50 (Malme-3M) | GI50 (NCI-H23) | GI50 (NCI-H522) | GI50 (RPMI-8226) | GI50 (SK-MEL-2) | GI50 (SK-MEL-5) | GI50 (SNB-19) | GI50 (SNB-75) | GI50 (UO-31) | GI50 (NCI-H226) | GI50 (OVCAR-3)
1 | Nc1nc(N)c2c(Cl)c(CNc3ccc(C(=O)NC(CC(=O)O)C(=O)O)cc3)ccc2n1 (configuration not stated) | < 0.01 µM (active) | < 0.01 µM (active) | < 0.01 µM (active) | < 0.01 µM (active) | < 0.01 µM (active) | < 0.01 µM (active) | < 0.01 | < 0.027 µM (active) | < 0.01 µM (active) | 17.7 µM (inactive) | < 0.01 µM (active) | < 0.01 µM (active) | < 0.01 µM (active) | > 100 µM (inactive) | < 0.01 µM (active) | < 0.01 µM (active) | 8.87 µM (inactive) | < 0.01 µM (active) |  | 
2 | Cn1c(=O)c2c(nc3n2CCCC(=O)N3CCCCl)n(C)c1=O | > 100 µM (inactive) | > 100 µM (inactive) | > 100 µM (inactive) | > 100 µM (inactive) | > 100 µM (inactive) | > 100 µM (inactive) | > 100 | > 100 µM (inactive) | > 100 µM (inactive) |  | > 100 µM (inactive) | > 100 µM (inactive) | > 100 µM (inactive) | > 100 µM (inactive) | > 100 µM (inactive) | > 100 µM (inactive) | > 100 µM (inactive) | > 100 µM (inactive) | > 100 µM (inactive) | > 100 µM (inactive)
3 | COc1c(O)cc2c(c1O)C(=O)/C(=C/c1ccc(O)cc1)CO2 | 30.8 µM (inactive) | 40 µM (inactive) | 31 µM (inactive) | 22.2 µM (inactive) | 27.1 µM (inactive) | 28.8 µM (inactive) | 14.8 | 33.1 µM (inactive) | 24.7 µM (inactive) | 30.2 µM (inactive) | 26.8 µM (inactive) | 14.4 µM (inactive) | 9.33 µM (inactive) | 27 µM (inactive) | 22 µM (inactive) | 30.8 µM (inactive) | 21.2 µM (inactive) | 23 µM (inactive) |  | 27.2 µM (inactive)
4 | Cc1ccc(C2=Nn3c(nc4sc(-c5ccccc5)cc4c3=O)SC2)cc1 | > 100 µM (inactive) | > 100 µM (inactive) | > 100 µM (inactive) | > 100 µM (inactive) | > 100 µM (inactive) | > 100 µM (inactive) | > 100 | > 100 µM (inactive) | > 100 µM (inactive) | > 100 µM (inactive) | > 100 µM (inactive) | > 100 µM (inactive) | > 100 µM (inactive) |  | > 100 µM (inactive) |  | > 100 µM (inactive) | > 100 µM (inactive) | > 100 µM (inactive) | > 100 µM (inactive)
5 | COC(=O)CC1CN(C(=O)OCc2ccccc2)C(C)(C)O1 (configuration not stated) | > 100 µM (inactive) | > 100 µM (inactive) | > 100 µM (inactive) | > 100 µM (inactive) | > 100 µM (inactive) | 35.2 µM (inactive) | > 100 |  | 82.2 µM (inactive) | 45.3 µM (inactive) | 28.8 µM (inactive) | 5.46 µM (inactive) | 81.3 µM (inactive) | > 100 µM (inactive) | 44.6 µM (inactive) | 7.08 µM (inactive) | 3.3 µM (inactive) | 38.6 µM (inactive) | 2 µM (inactive) | > 100 µM (inactive)
6 | COc1cc2c3c(c4cc(OC)c(OC)cc4c2cc1OC)C(=O)C1CCC(=O)N1C3 (configuration not stated) |  | 14.9 µM (inactive) |  | 8.75 µM (inactive) | 11.5 µM (inactive) |  | 31.6 | 13.6 µM (inactive) | 2.43 µM (inactive) | 8.75 µM (inactive) | 55 µM (inactive) | 3.1 µM (inactive) | 2.02 µM (inactive) | 41.9 µM (inactive) | 34 µM (inactive) |  | 11.6 µM (inactive) |  |  | 20.6 µM (inactive)
